# Source: publication PMC8155809 (The Journal of General Physiology, 2021)
# Assays:
# [1] = target: T1, human TREK-2 (Homo sapiens, UniProt P57789); assay: Macroscopic TREK-2 currents in giant excised patches from Xenopus oocytes; assay type: cell-based
# T1 construct: expressed in transfected cells; host or cells: Xenopus laevis oocytes injected with in vitro transcribed mRNA (pFAW vector)
# T1 sequence (P57789 1-543 isoform P57789-4): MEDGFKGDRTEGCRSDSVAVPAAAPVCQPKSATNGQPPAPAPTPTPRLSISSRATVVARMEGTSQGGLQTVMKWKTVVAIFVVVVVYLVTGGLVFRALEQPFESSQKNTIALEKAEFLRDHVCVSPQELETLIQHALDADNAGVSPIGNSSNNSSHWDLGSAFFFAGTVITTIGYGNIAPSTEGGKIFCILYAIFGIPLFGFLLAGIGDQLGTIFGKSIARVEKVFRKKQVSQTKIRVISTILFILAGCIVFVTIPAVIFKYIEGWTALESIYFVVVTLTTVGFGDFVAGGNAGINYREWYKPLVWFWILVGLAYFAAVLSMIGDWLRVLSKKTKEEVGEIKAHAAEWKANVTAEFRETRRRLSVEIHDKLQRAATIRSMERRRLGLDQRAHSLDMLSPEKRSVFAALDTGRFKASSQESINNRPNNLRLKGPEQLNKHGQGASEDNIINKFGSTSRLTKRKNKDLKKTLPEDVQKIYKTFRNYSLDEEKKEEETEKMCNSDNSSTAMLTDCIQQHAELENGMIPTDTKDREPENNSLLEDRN
# Protocol: (§1) Full-length human TREK-2 isoform 3 (NCBI accession no. NP_612191) was used throughout this study and was subcloned into the pFAW vector for expression in oocytes. The truncated construct used to generate protein (TREK-2ΔN/ΔC) is identical to that used previously to obtain crystal structures ([Dong et al., 2015]); it contains a deletion of 71 residues at the N terminus and 213 residues at the C terminus. […] Desamino chloro-fluoxetine (Toronto Research Chemicals) was dissolved in chloroform and diluted to working concentrations on the day of experimenting (maximum final concentration was 0.01%).
# Oocytes were prepared for injection of mRNA by collagenase digestion followed by manual defolliculation and stored in ND96 solution that contained (in mM) 96 NaCl, 2 KCl, 1.8 CaCl2, 1 MgCl2, and 10 HEPES (pH 7.4) and was supplemented with 2.5 mM sodium pyruvate 50 µg/ml gentamycin, 50 µg/ml tetracycline, 50 µg/ml ciprofloxacin, and 100 µg/ml amikacin. Cells were injected with 1–4 ng mRNA up to 4 d after isolation. In vitro transcription of mRNA was done using the Amplicap SP6 Kit (Cambio). Experiments were performed 12–24 h after injection at room temperature (22°C unless otherwise indicated). For measurement and comparison of basal whole-cell currents, oocytes were injected with 4 ng RNA and recorded exactly 24 h after injection.
# (§2) For currents recorded in Xenopus laevis oocytes, giant-patch electrodes were pulled from thick-walled borosilicate glass and polished to give pipette resistances of ∼0.3–0.5 MΩ when filled with patch solution. Pipette solution contained (in mM) 116 NMDG, 4 KCl, 1 MgCl2, 3.6 CaCl2, and 10 HEPES (pH 7.4), while the bath solution contained (in mM) 120 KCl, 1 NaCl, 2 EGTA, and 10 HEPES (pH 7.3). Patches were perfused via a gravity-flow perfusion system and a HEKA EPC 10 USB single computer–controlled amplifier was used and currents recorded using a Patchmaster v2 × 90.5 (HEKA Electronics), filtered at 1 kHz, and sampled at 10 kHz. For currents recorded in HEK293 cells, patch electrodes were pulled from thick-walled borosilicate glass and polished to give pipette resistances of ∼3–5 MΩ when filled with patch solution. The currents were recorded from excised patches with both intracellular and extracellular solution containing 200 mM KCl and 10 mM HEPES (pH 6.0 with KOH). Patches were perfused via a gravity-flow perfusion system. Data were acquired with pClamp and recorded using an Axopatch 200B (Molecular Devices), filtered at 5 kHz, and sampled at 200 kHz. Single-channel currents were analyzed in an identical manner to those obtained from bilayers (see above).
# The macroscopic concentration–inhibition relationships in Figs. 1 and 2 were fitted with a modified Hill equation:
# I/I0=a+1−a/1+([X]/IC50)^h, (1) where I and IO are the currents in the presence and absence of inhibitor, respectively, [X] is the concentration of inhibitor, IC50 is the inhibitor concentration at which the inhibition is half maximal, h is the Hill coefficient, and a is the fraction of unblockable current; a = 0, except where indicated in the legend to Fig. 1.
# The macroscopic concentration–activation relationships in Fig. 1 E were fitted with a modified Hill equation: I/I0=a+(1−a)([X]/IC50)^h/1+([X]/IC50)^h, (2) where I and IO are the currents in the presence and absence of agonist, respectively, [X] is the concentration of agonist, IC50 is the agonist concentration at which the activation is half maximal, h is the Hill coefficient, and a is the fraction of initial current.
# [2] = target: T2, WT TREK-2 (Homo sapiens, UniProt P57789); assay: Single-channel recordings of WT TREK-2 in excised patches from HEK293 cells; assay type: cell-based
# T2 construct: full-length WT TREK-2 channels, we examined its effects on the mean open time of TREK-2 channels expressed in HEK293 cells; expressed in transfected cells; host or cells: HEK293 cells, transient transfection with pcDNA3
# T2 sequence (P57789 1-543 isoform P57789-4): T1 sequence (P57789 1-543 isoform P57789-4)
# Protocol: as §1
# HEK293 cells were cultured in DMEM (Sigma) containing 10% FBS (Life Technologies), 3 mM glucose, and 2 mM glutamine at 37°C in a humidified atmosphere of 5% CO2/[…] at 37°C. Cells were transiently transfected with 0.2 µg channel pcDNA3 per dish using FuGENE 6 according to the manufacturer’s instructions. Cells were used 1–2 d after transfection.
# as §2
structure (smiles),measurement,setting,value
c1ccc(-c2nn[nH]n2)c(Nc2cccc3c2CCCC3)c1 [BL1249],"h (Hill coefficient), BL1249 activation",[1]; BL1249 on its own,1.9
same,"h (Hill coefficient), BL1249 activation",[1]; in the presence of NFx,1.4
CS(=O)(=O)Nc1ccc(C(=O)NCc2ccc(Cl)cc2Cl)cc1 [ML335],mean Po,"[2]; 100 µM ML335, absence of NFx, −40 mV",0.69 ± 0.2
"FC(F)(F)c1ccc(O[C@@H](CCCl)c2ccccc2)cc1 [desamino chloro-fluoxetine, Desamino chloro-fluoxetine]",PO (single-channel open probability),"[2]; 10 µM, −40 mV",0.04
same,reduction in γ (single-channel current amplitude),"[2]; 10 µM, −40 mV (Fig. 6B)",15 ± 5%
same,reduction of channel Po,"[2]; 10 µM, −40 mV (Fig. 6B)",75 ± 0.05%
